Literature values as cited in US20140032198A1, “APPLICATION OF MULTIDIMENSIONAL MATRIX FOR DRUG MOLECULAS DESIGN AND THE METHODOLOGIES FOR DRUG MOLECULAR DESIGN” (priority 2011, published 2014).

Conditions: qualitative comparison within captopril series, historical data

| Compound | toxicity and side effects profiles |
| --- | --- |
| Benazepril | relatively weaker |
| CCOC(=O)[C@H](CCc1ccccc1)N[C@@H](C)C(=O)N1Cc2ccccc2C[C@H]1C(=O)O [Quinapril] | relatively weaker |
| Lisinopril | relatively weaker |
| Ramipril | best toxicity and side effects profiles |
| CCC(=O)O[C@@H](O[P@](=O)(CCCCc1ccccc1)CC(=O)N1C[C@H](C2CCCCC2)C[C@H]1C(=O)O)C(C)C [Fosinopril] | relatively weaker |
